Each structure is given as a SMILES string. “And” between values parts separate entries of the source, which are not always exact repeats. Identical values can stand only once. The source made the active and inactive calls.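 The calls were made as follows: active = fitted half-maximal concentration for change in GFP expression of 33 µM or less; inactive = the rest.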

The nature of this experiment: concentration-dependent AGP1-GFP change, TOR pathway – cell-based, flow cytometry, S. cerevisiae, MLPCN hits, dose response (AID 2743). To be noted: S. cerevisiae AGP1-GFP strain, flow cytometry GFP, 3 h; at 33 µM (top of the series). A general note: A flow cytometer gives signals particle by particle.
As for `COc1ccc(/C=C2/C(=O)ON=C2c2ccccc2)cc1OC`, the GFP fluorescence (kMESF) was 27.1 kMESF (inactive).

With `CCCS(=O)(=O)c1nnnn1-c1cccc(OC)c1`, the GFP fluorescence (kMESF) is 35.1 kMESF (inactive).

Consider `O=C1C(Cl)=C(N2CCN(Cc3ccccc3)CC2)C(=O)N1c1ccccc1`, for which the GFP fluorescence (kMESF) was 43.8 kMESF (inactive).

For the compound `CNC(CC(=O)c1ccc([N+](=O)[O-])cc1)C(Cl)(Cl)Cl` (stereo not given), the GFP fluorescence (kMESF) is 25.2 kMESF (inactive).

Consider `Cc1ccc(C2=NOC(=O)/C2=C\c2ccc(C)o2)cc1`, for which the GFP fluorescence (kMESF) was 32.4 kMESF (inactive).

With `Cc1ccc(-c2nc(C)sc2CC(=O)Nc2nnc(C)s2)cc1`, the GFP fluorescence (kMESF) is 34.5 kMESF (inactive).

With `O=C(CCS(=O)(=O)c1ccccc1)Nc1nc(-c2ccccn2)cs1`, the GFP fluorescence (kMESF) was 35.9 kMESF (inactive).

For the compound `Cc1cc(C(=O)Nc2nc(-c3ccccn3)cs2)ccc1[N+](=O)[O-]`, the GFP fluorescence (kMESF) is 44.4 kMESF (inactive).

Consider `COc1ccc2c(c1)c1nnc(SC)nc1n2C`, for which the GFP fluorescence (kMESF) was 17.9 kMESF (inactive).

For `Cc1ccc2c(c1)c(/C=C/c1cc[n+](C)cc1)c(C)n2C`, the GFP fluorescence (kMESF) is 48.2 kMESF (inactive).

As to `Cc1cc(/C=C2/SC(=S)N(c3cccc(Cl)c3)C2=O)c(C)n1-c1cccnc1`, the GFP fluorescence (kMESF) is 46.4 kMESF (inactive).

`Cc1ccc(C(=O)/C=C/C(=O)c2ccc(C)cc2)cc1`: the GFP fluorescence (kMESF) was 43.8 kMESF (inactive).

As for `CCn1c(=O)c(C(C)=O)c(O)c2ccccc21`, the GFP fluorescence (kMESF) was 41.4 kMESF (inactive).

As to `CC(=O)CSc1ncnc2c1cnn2-c1ccccc1`, the GFP fluorescence (kMESF) was 38.5 kMESF (inactive).

On to `Cc1ccc(C(=O)NNC(=S)NC(=O)COc2ccccc2)cc1`, for which the GFP fluorescence (kMESF) is 39.8 kMESF (inactive).

For `COc1ccc(-c2cc(C(F)(F)F)nc(S(C)(=O)=O)n2)cc1`, the GFP fluorescence (kMESF) was 36 kMESF (inactive).

On to `O=C(NOC(=O)c1ccccc1)c1ccccc1`, for which the GFP fluorescence (kMESF) was 25.9 kMESF (inactive).

For `COc1ccc2c(/C=C/c3cc[n+](C)cc3)c[nH]c2c1`, the GFP fluorescence (kMESF) was 44.4 kMESF (inactive).

For the compound `CCOc1ccc(C(Nc2cccnc2)c2cc(Cl)c3cccnc3c2O)cc1` (stereo not given), the GFP fluorescence (kMESF) is 36.3 kMESF (inactive).

With `O=[N+]([O-])c1ccc(O)c2ncccc12`, the GFP fluorescence (kMESF) was 39.4 kMESF (inactive) and 32.2 kMESF (inactive).

With `CC1=C/C(=N\OS(=O)(=O)c2ccccc2)C(C(C)C)=CC1=O`, the GFP fluorescence (kMESF) is 28.8 kMESF (inactive).

Turning to `O=[N+]([O-])c1cc(Cl)c2cccnc2c1O`, the GFP fluorescence (kMESF) is 22.6 kMESF (inactive).

As for `Cc1cccc(C(=O)NC(=S)NNC(=O)Cc2ccccc2)c1`, the GFP fluorescence (kMESF) was 37.6 kMESF (inactive).

Take `C=C1C(O)[C@@H]2O[C@]3(CC[C@H](/C=C/C(C)[C@@H]4CC(C)=CC5(O[C@H](C[C@@](C)(O)C(=O)O)CCC5O)O4)O3)CC[C@H]2O[C@@H]1C(O)CC(C)[C@H]1OC2(CCCCO2)CCC1C` (stereo not given in full): the GFP fluorescence (kMESF) is 35.8 kMESF (inactive).

`CCc1cc(C(=O)Nc2nc(-c3ccccn3)cs2)sc1C`: the GFP fluorescence (kMESF) was 29.2 kMESF (inactive).

Consider `CC1=NNC(=O)/C1=C\c1cn(-c2ccccc2)nc1-c1cccs1`, for which the GFP fluorescence (kMESF) is 37.3 kMESF (inactive).

Take `Cc1ccc(-c2nn(C(C)(C)C)c3ncnc(N)c23)cc1`: the GFP fluorescence (kMESF) was 40.2 kMESF (inactive).

As for `O=C(NNC(=S)NC(=O)c1ccco1)c1ccc(F)cc1`, the GFP fluorescence (kMESF) is 43.7 kMESF (inactive).

As for `CCc1nc2ccccc2c(=O)n1NC(=O)c1c(O)c2cccc3c2n(c1=O)CCC3`, the GFP fluorescence (kMESF) was 18.3 kMESF (inactive).

`C[C@H]1C[C@@H](C)C(=O)[C@@H]([C@H](O)CC2CC(=O)NC(=O)C2)C1`: the GFP fluorescence (kMESF) was 25.3 kMESF (inactive).

As for `O=[N+]([O-])c1ccc(Sc2nc3ccccc3o2)c([N+](=O)[O-])c1`, the GFP fluorescence (kMESF) is 37.2 kMESF (inactive).

For `O=C(O)c1ccc(COc2ccccc2C=C2C(=O)c3ccccc3C2=O)cc1`, the GFP fluorescence (kMESF) was 32.6 kMESF (inactive).

On to `COc1ccc(C2(C)ON(c3ccccc3C(F)(F)F)C2=O)cc1` (stereo not given), for which the GFP fluorescence (kMESF) is 36.5 kMESF (inactive).

Take `Cn1c(=O)c(C(=O)NNC(=O)c2ccc(Br)cc2)c(O)c2ccccc21`: the GFP fluorescence (kMESF) was 26.2 kMESF (inactive).

Regarding `COc1ccc(OC)c(S(=O)(=O)ON2C(=O)c3ccccc3C2=O)c1`, the GFP fluorescence (kMESF) is 39.4 kMESF (inactive).

As to `O=c1c(-c2ccc(Cl)cc2)[n+]([O-])c2ccccc2n1O`, the GFP fluorescence (kMESF) was 38.1 kMESF (inactive).

Consider `COc1cc(/C=C2\C(=O)ON=C2c2ccccc2)cc(OC)c1OC`, for which the GFP fluorescence (kMESF) was 32.3 kMESF (inactive).

With `C=CCOc1ccccc1C(=O)/C=C1/C(=O)Nc2ccccc21`, the GFP fluorescence (kMESF) is 43.2 kMESF (inactive).

On to `O=C1N(c2ccccc2C(F)(F)F)OC1(Cc1ccccc1)c1ccccc1` (stereo not given), for which the GFP fluorescence (kMESF) was 41.5 kMESF (inactive).

Regarding `COc1ccc(OCC(=O)NNC(=S)NC(=O)C2CCCCC2)cc1`, the GFP fluorescence (kMESF) was 35.6 kMESF (inactive).

`N/C(=N\OC(=O)c1cc(Br)ccc1Cl)c1ccccn1`: the GFP fluorescence (kMESF) was 31.3 kMESF (inactive).

For the compound `COc1cccc(/C=C2\SC(=S)N(CCCC(=O)Nc3ccc(C(=O)O)cc3)C2=O)c1`, the GFP fluorescence (kMESF) is 34.8 kMESF (inactive).

Turning to `O=[N+]([O-])c1ccc(O)c(/C=N/Nc2ccccn2)c1`, the GFP fluorescence (kMESF) was 30.3 kMESF (inactive).

On to `COc1ccc(-c2cc3cc(C(=O)O)ccn3c2C(=O)c2ccccc2)cc1`, for which the GFP fluorescence (kMESF) is 43.2 kMESF (inactive).

With `CC(C)(C)n1nc(-c2ccc(F)cc2)c2c(N)ncnc21`, the GFP fluorescence (kMESF) is 40.2 kMESF (inactive).

Take `O=C1NC(=O)N(Cc2ccco2)C(=O)/C1=C/c1ccc(-c2cccc([N+](=O)[O-])c2)o1`: the GFP fluorescence (kMESF) was 34.8 kMESF (inactive).

`COc1ccc(NC(=O)/C(C#N)=C/c2ncc([N+](=O)[O-])n2C)c(OC)c1`: the GFP fluorescence (kMESF) was 45.2 kMESF (inactive).

With `CC[C@@]1(c2ccccc2OC)ON(c2ccccc2C(F)(F)F)C1=O`, the GFP fluorescence (kMESF) is 33.2 kMESF (inactive).

For `Oc1ccc2ccccc2c1N=Nc1nccs1`, the GFP fluorescence (kMESF) is 43.4 kMESF (inactive).

For `COc1cccc2sc(Nc3nc(-c4ccccn4)cs3)nc12`, the GFP fluorescence (kMESF) is 34.7 kMESF (inactive).

For the compound `COc1ccccc1OCCCc1c(C)n[nH]c1C`, the GFP fluorescence (kMESF) is 31.1 kMESF (inactive).

`O=C1c2cccc3c([N+](=O)[O-])ccc(c23)C(=O)N1O`: the GFP fluorescence (kMESF) was 40.9 kMESF (inactive).

`Cc1ccc(C(=O)Oc2oc(-c3ccco3)nc2C=Nc2ccc(Cl)cc2)cc1`: the GFP fluorescence (kMESF) was 35 kMESF (inactive).

For `COc1ccc(C(=O)NNC(=S)NC(=O)/C=C/c2cccs2)cc1`, the GFP fluorescence (kMESF) is 52.8 kMESF (inactive).

Take `Oc1c(C(Nc2cccc(C(F)(F)F)c2)c2ccncc2)ccc2cccnc12` (stereo not given): the GFP fluorescence (kMESF) is 30.3 kMESF (inactive).

`O=C(/C=C/c1ccc(Br)cc1)NC(=S)NNC(=O)c1ccco1`: the GFP fluorescence (kMESF) was 36.3 kMESF (inactive).

With `O=C(Oc1oc(-c2ccco2)nc1C=Nc1ccccc1)c1ccoc1`, the GFP fluorescence (kMESF) was 44.7 kMESF (inactive).

As for `CC1=NNC(=O)/C1=C\c1cn(-c2ccccc2)nc1-c1ccccc1`, the GFP fluorescence (kMESF) is 40.4 kMESF (inactive).

`CCc1ccc(/C=C/C(=O)c2cc(Br)ccc(=O)c2O)cc1`: the GFP fluorescence (kMESF) was 22.2 kMESF (inactive).

Take `CC[C@]1(c2ccccc2C)ON(c2ccccc2C(F)(F)F)C1=O`: the GFP fluorescence (kMESF) is 38.9 kMESF (inactive).

Consider `O=C(COc1ccccc1)NNC(=S)NC(=O)c1ccccc1`, for which the GFP fluorescence (kMESF) is 42.7 kMESF (inactive).

As to `Cc1cccc(N2C(=O)C(Cl)=C(Nc3c(C)n(C)n(-c4ccccc4)c3=O)C2=O)c1C`, the GFP fluorescence (kMESF) is 43.3 kMESF (inactive).

As for `O=C(OCC(=O)N1CCN(C(=O)c2ccco2)CC1)c1cc(-c2ccc(Cl)c(Cl)c2Cl)nc2ccccc12`, the GFP fluorescence (kMESF) is 50.9 kMESF (inactive).

`CCC(C)/C(C)=N/NC(=O)c1ccc(COc2ccc(Cl)c(C)c2)cc1` (stereo not given): the GFP fluorescence (kMESF) was 41.2 kMESF (inactive).

In the case of `Cc1ccc(NN2C(=O)C=C(c3ccc(Cl)cc3)C2=O)cc1`, the GFP fluorescence (kMESF) is 44.4 kMESF (inactive).

As to `COc1ccc(/C=C/C(=O)c2cc(Br)ccc(=O)c2O)cc1`, the GFP fluorescence (kMESF) is -39.3 kMESF (inactive).

As to `CN(C)NC(=S)Nc1ccc(S(=O)(=O)N2CCCCC2)cc1`, the GFP fluorescence (kMESF) was 40.4 kMESF (inactive).

Consider `Oc1c(CN2CCN(c3ccc(F)cc3)CC2)cc(Cl)c2cccnc12`, for which the GFP fluorescence (kMESF) is 41.8 kMESF (inactive).

For the compound `N/C(Cc1ccc(Cl)cc1)=N\OC(=O)c1cccc2ccccc12`, the GFP fluorescence (kMESF) is 33 kMESF (inactive).

With `O=C(NC(=S)NNC(=O)c1cnccn1)c1ccc(Cl)cc1`, the GFP fluorescence (kMESF) is 37.6 kMESF (inactive).

In the case of `CC(C)[C@@]1(c2ccc(Cl)cc2)ON(c2ccccc2C(F)(F)F)C1=O`, the GFP fluorescence (kMESF) is 40.5 kMESF (inactive).

On to `O=C(/C=C/c1cccc(Cl)c1)c1nc2ccccc2[nH]1`, for which the GFP fluorescence (kMESF) was 29.7 kMESF (inactive).

Take `O=C(OCn1ncc(Br)c(Br)c1=O)c1c(F)cccc1F`: the GFP fluorescence (kMESF) is 42.7 kMESF (inactive).

For `O=C1C(Cl)=C(NCCc2ccccc2)C(=O)N1CCc1ccccc1`, the GFP fluorescence (kMESF) is 43.3 kMESF (inactive).

As for `CC(=O)Oc1ccc(/C=c2\sc3ncnn3c2=O)cc1`, the GFP fluorescence (kMESF) is 36.7 kMESF (inactive).

With `O=C(Sc1cccc2cccnc12)c1ccccc1Br`, the GFP fluorescence (kMESF) is 37.3 kMESF (inactive).

In the case of `CCC(=O)Oc1oc(-c2ccccc2)nc1C=Nc1ccccc1OC`, the GFP fluorescence (kMESF) is 42.9 kMESF (inactive).

`CC(C)(C)C(=O)NC(=S)NNC(=O)c1ccc(-c2ccccc2)cc1`: the GFP fluorescence (kMESF) was 44.1 kMESF (inactive).

With `O=C1Nc2ccc(Br)cc2/C1=C/C(=O)c1ccc2c(c1)OCO2`, the GFP fluorescence (kMESF) is 46.7 kMESF (inactive).

Take `CCOC(=O)c1c(C)oc2c1c(C(c1cccnc1)N1CCOCC1)c(O)c1ccccc12` (stereo not given): the GFP fluorescence (kMESF) was 29.9 kMESF (inactive).

These data come from PubChem BioAssay AID2743 (NMMLSC, 2010).
